A short description of data set [1]: Acute intravenous toxicity study in the monkey (24-hour infusion, escalating doses). The format is in vivo, Cynomolgus monkeys. As to the method: The objective of this single, dose escalating study was to establish a maximum tolerated dose (MTD) for SEQ ID NO:1 and to assess the effect of administered SEQ ID NO:1 on the cardiac function of conscious Cynomolgus monkeys. […] There was a 3-day washout between doses. One female animal, administered vehicle only (PBS) in the same manner, was used as a control. Electrocardiogram (ECG) measurements were conducted on each animal (including control) prior to, during and after the end of each infusion interval. Clinical signs, mortality, body weight and food consumption measurements, hematology, coagulation and clinical chemistry parameter evaluations, were recorded and evaluated. In addition, blood samples were removed prior to and at the end of each infusion interval to measure complement (CH50 and Bb). Blood samples were also drawn at the end of each infusion for analysis of parent, SEQ ID NO:1.

The subject of data set [2] is R1 mRNA. As to the kind of experiment: Northern blot of R1 mRNA in MDA-MB-231 cells. The format is cell-based, human. The following applies: 0.2 μM, four hours with Lipofectin, 16 hours recovery. The protocol: Total RNA was isolated using TRIzol reagent (GIBCO BRL) after cells were treated with 0.2 μM SEQ ID NO:1 for four hours in the presence of cationic lipid (Lipofectin reagent, GIBCO BRL), washed with PBS, and incubated for 16 hours to recover in normal medium containing 10% FBS. Northern blot analysis was performed as previously described (Hurta and Wright, 1995). RNA was subjected to electrophoresis through 1% formaldehyde agarose gels followed by transfer to nylon membranes. Blots were hybridized in the presence of a R1 fragment (McClarty et al, 1987). Glyceraldehyde-3-phosphate dehydrogenase (GAPDH) mRNA levels were simultaneously probed for RNA loading controls.

The test system of data set [3] is C8161 human melanoma cells. As to the kind of experiment: Experimental metastasis of C8161 cells treated ex vivo (lung nodules, CD-1 athymic nude mice). The format is in vivo. The note with it: cells treated 4 hr with 0.2 μM plus Lipofectin before tail vein injection; 4 weeks; vs lipofectin alone. As to the method: A. Experimental metastasis of C8161 human melanoma cells treated with SEQ ID NO:1 was estimated as follows. Aliquots of C8161 cell suspension were seeded into 100 mm tissue culture dishes at a density of 2×10^6 and incubated overnight at 37° C. in α-MEM medium supplemented with 10% FBS. Following a wash with 10 ml of PBS, cells were treated for 4 hr with 0.2 μM of SEQ ID NO:1 in the presence of a cationic lipid (Lipofectin reagent, final concentration, 10 μg/ml, Gibco BRL) or with lipofectin alone (CONTROL) as a control. SEQ ID NO:1 was removed by washing the cells once with PBS. Cells were then collected by trypsinization and centrifugation. Approximately 1×10^5 cells suspended in 0.2 ml of PBS were injected into the tail veins of 6-8 week-old CD-1 athymic female nude mice. Estimates of the number of lung tumors were made 4 weeks later by counting metastatic foci formed on the excised lung surface, see FIG. 12A. Bars represent mean number of tumor nodules in lungs obtained from 7-9 animals per experimental group.

In data set [4] the test system is C8161 human metastatic melanoma cells. Kind of data set: Experimental metastasis of C8161 cells, in vivo treatment (lung nodules, SCID mice). The note with it: 10 mg/kg/48 hr from day 2, 5-7 weeks. The protocol:
B. C8161 human metastatic melanoma cells were seeded into 100 mm tissue culture dishes at a density of 2×10^6 and incubated overnight at 37° C. in α-MBM medium supplemented with 10% FBS. The cells were trypsinized, collected by centrifugation and aliquots were removed from the suspension to determine the cell viability using trypan blue exclusion test. Approximately, 1×10^5 cells suspended in 0.1 ml of PBS were injected into the tail veins of 6-8 week old female SCID mice. Treatment with saline or 10 mg/kg/48 hr SEQ ID NO:1 or SEQ ID NO:1-SCR (scrambled control) was initiated after 2 days. Estimates of the number of lung nodules were made 5-7 weeks later, after excised lungs from individual mice were stained with picric acid dye solution (75% picric acid, 20% formaldehyde, 5% glacial acetic acid), see FIG. 12B. The bars represent the mean number of nodules per mouse with standard error.

Data set [5] relates to HT-29 human colon cancer cells. Kind of data set: HT-29 colon tumor growth in CD-1 nude mice. The format is in vivo. The following applies: for tumor weight / tumor growth: SEQ ID NO:1 10 mg/kg every other day. As to the method:
A. HT-29 human colon cancer cells (3×10^6 cells in 100 μl of PBS) were subcutaneously injected into the right flank of 6-7 weeks old female CD-1 nude mice. After the size of tumor reached an approximate volume of 50 mm^3, 4 days post tumor cell injection, SEQ ID NO:1 was administered by bolus infusion into the tail vein every other day at 10 mg/kg. Control animals received saline alone for the same period. Antitumor effect of SEQ ID NO:1 was further compared to that of mitomycin C alone or that of SEQ ID NO:1 in combination with mitomycin C. Mitomycin C was administered intravenously at days 4, 11 and 18 with a dose of 3.5 mg/kg/week, one hour after the treatments with SEQ ID NO:1. All treatments were stopped at day 22. A day after the last treatment, tumors were excised from the animals and their weights were measured (FIG. 13A). […] The delay in tumor growth achieved with SEQ.
B. HT-29 human colon cancer cells (3×10^6 cells in 100 μl of PBS) were subcutaneously injected into the right flank of 5-6 week old female CD-1 nude mice. After the size of tumor reached an approximate volume of 100 mm^3, 7 days post tumor cell injection, SEQ ID NO:1 was administered by bolus infusion into the tail vein every other day at 10 mg/kg. Control animals received saline alone for the same period. Antitumor effect of SEQ ID NO:1 was further compared to that of CPT-11 alone or that of SEQ ID NO:1 in combination with CPT-11. CPT-11 was administered intraperitoneally for 5 days in a row from day 7-12 with a dose of 20 mg/kg in 100 μl saline. All treatments were stopped at day 32. A day after the last treatment, tumors were excised from the animals and their weights were measured (FIG. 13B).

Data set [6] can be described thus: Repeat dose 14-day toxicity study in monkeys (Part 1). The note with it: monkey.
Data set [7] can be described thus: Repeat dose 21-day toxicity study in monkeys (Part 2). The following applies: monkey; 21-day infusion, 50 mg/kg/day.
Data set [8] is described as follows: Toxicokinetics in repeat dose (14-day and 21-day) continuous infusion studies in monkeys. The note with it: monkey.

Entries after “also recorded” stand apart in the source; their conditions may differ.

As to “5′-CTCTAGCGTCTTAAAGCCGA-3′ (CTCTAGCGTCTTAAAGCCGA; chemistry not given here) [SEQ ID NO:1]”, the complement values entry in data set [1] (80 mg/kg, one animal (female)) was “outside the normal range (higher Bb and lower CH50)”. In addition, in data set [1] (10-80 mg/kg), the “ECG recordings and blood pressure” value is given as “no treatment-related effects”. In addition, in data set [1] (24-hour infusions of 10, 20, 40 and 80 mg/kg), the “deaths, clinical signs, body weight, food consumption” value was “no deaths, clinical signs, body weight changes, or effects on food consumption”. Further, the “plasma concentrations at the end of infusion” value in data set [1] (escalating doses 10-80 mg/kg) was “increased with escalating dose levels”. Besides, in data set [1] (following the last dose (Day 14), all values within normal ranges), the “activated partial thromboplastin times” value was “apparent increasing trend”. The “complement Bb and CH50 values” in data set [1] (up to 40 mg/kg) is “within the reference range”. Also, the “R1 mRNA level” value in data set [2] was “specifically decreases R1 mRNA; also recorded: significant decrease; also recorded: decreased R1 mRNA levels”. Further, in data set [3], the “number of lung tumor nodules” value is reported as “significantly reduced the formation of lung colonies”. Moreover, the “number of lung nodules” value in data set [4] was “no visible lung nodules”. In addition, the “delay in tumor growth compared with mitomycin C alone” value in data set [5] (FIG. 13A) is “superior to the inhibitory effects observed with mitomycin C alone”. Besides, the “tumor weight / tumor growth” value in data set [5] (FIG. 13A, mitomycin C 3.5 mg/kg/week i.v., stopped day 22) is on record as “significant delay of tumor growth”; in data set [5] (FIG. 13B, CPT-11 20 mg/kg i.p. 5 days, stopped day 32), “significant delay of tumor growth”. Moreover, the “deaths, clinical signs, appetite, ophthalmology, cardiology, hematology, organ weights” value in data set [6] (14-day infusion up to 40 mg/kg/day) is “no deaths, no treatment-related clinical signs, effects on appetite, ophthalmology effects, cardiology, hematology effects, or changes in organ weights”. In data set [6] (continuously for 14 days at 10 mg/kg/day (123 mg/m^2/day)), the toxicity result is “Minimal and reversible toxicity”. Also, in data set [7], the mortality entry is on record as “one high dose animal was sacrificed on Day 19 for ethical reasons”. The “AUC estimates versus duration and dose” value in data set [8] (Part 1 and Part 2 Recovery animals) was “proportional with the duration of infusion and the administered dose level”. Further, the “sex differences in toxicokinetic profile” value in data set [8] (Parts 1 and 2) is given as “no apparent sex-differences”.

The values above are taken from patent publication US20070274947A1, “Antisense Oligonucleotides Directed to Ribonucleotide Reductase R1 and Uses Thereof in the Treatment of Cancer” (priority 2003, published 2007).
